# According to US7416848B2, “DNA encoding SNORF25 receptor” (H. Lundbeck A/S, priority 1999, dated 2008):
# Experiments:
# [1] = tested on: control (CFTR alone) oocytes; assay: CFTR Cl- currents in control oocytes injected with only CFTR mRNA; assay type: cell-based, Xenopus laevis; conditions: 10 μM
# serotonin 5-HT6 receptor = biological target: T1, serotonin 5-HT6 receptor (Homo sapiens, UniProt P50406); assay: cAMP in Cos-7 cells transfected with serotonin 5-HT6 receptor; assay type: cell-based; conditions: 10 μM, serotonin 5-HT6 (FIG. 7)
# T1 construct: expressed in transfected cells; host or cells: Cos-7 cells
# Experimental: (§1) A typical protocol for the electroporation method as applied to Cos-7 cells is described as follows. Cells to be used for transfection are split 24 hours prior to the transfection to provide flasks which are subconfluent at the time of transfection. The cells are harvested by trypsinization resuspended in their growth media and counted. 5×10^6 cells are suspended in 300 μl of DMEM and placed into an electroporation cuvette. 8 μg of receptor DNA plus 8 μg of any additional DNA needed (e.g. G protein expression vector, reporter construct, antibiotic resistance marker, mock vector, etc.) is added to the cell suspension, the cuvette is placed into a BioRad Gene Pulser and subjected to an electrical pulse (Gene Pulser settings: 0.25 kV voltage, 950 μF capacitance). Following the pulse, 800 μl of complete DMEM is added to each cuvette and the suspension transferred to a sterile tube. Complete medium is added to each tube to bring the final cell concentration to 1×10^5 cells/100 μl. […]
# (§2) The receptor-mediated stimulation or inhibition of cyclic AMP (cAMP) formation may be assayed in cells expressing the receptors. […] The plates are stored at 4° C. for 15 min, and the cAMP content in the stopping solution is measured by radioimmunoassay. Radioactivity may be quantified using a gamma counter equipped with data reduction software. […]
# SNORF25 receptor = biological target: T2, SNORF25 receptor (Rattus norvegicus, UniProt Q7TQN8); assay: IP release in SNORF25-transfected CHO cells; assay type: cell-based
# T2 construct: the entire coding region was amplified from Rin14b cell line cDNA and rat genomic DNA; expressed in transfected cells; host or cells: CHO cells, transient (electroporation)
# T2 sequence (Q7TQN8 with tags, fused parts or gaps limits assumed): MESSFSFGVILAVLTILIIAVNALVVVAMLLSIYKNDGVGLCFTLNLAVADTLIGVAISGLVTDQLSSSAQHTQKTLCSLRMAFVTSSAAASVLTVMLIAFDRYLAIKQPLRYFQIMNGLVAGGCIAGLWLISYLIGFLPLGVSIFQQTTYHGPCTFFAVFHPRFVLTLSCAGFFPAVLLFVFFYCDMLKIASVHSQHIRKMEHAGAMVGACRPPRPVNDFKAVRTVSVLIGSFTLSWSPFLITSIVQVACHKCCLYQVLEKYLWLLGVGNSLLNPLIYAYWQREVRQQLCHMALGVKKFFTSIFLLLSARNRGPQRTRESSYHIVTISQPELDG
# Experimental: In a 96 well microplate format assay, cells are plated at a density of 70,000 cells per well and allowed to incubate for 24 hours. The cells are then labeled with 0.5 μCi [^3H]-myo-inositol overnight at 37° C., 5% CO2. Immediately before the assay, the medium is removed and replaced with 90 μL of PBS containing 10 mM LiCl. The plates are then incubated for 15 min at 37° C., 5% CO2. Following the incubation, the cells are challenged with agonist (10 μl/well; 10× concentration) for 30 min at 37° C., 5% CO2. The challenge is terminated by the addition of 100 μL of 50% v/v trichloroacetic acid, followed by incubation at 4° C. for greater than 30 minutes. Total IPs are isolated from the lysate by ion exchange chromatography. Briefly, the lysed contents of the wells are transferred to a Multiscreen HV filter plate (Millipore) containing Dowex AG1-X8 (200–400 mesh, formate form). The filter plates are prepared adding 100 μL of Dowex AG1-X8 suspension (50% v/v, water: resin) to each well. The filter plates are placed on a vacuum manifold to wash or elute the resin bed. Each well is first washed 2 times with 200 μl of 5 mM myo-inositol. Total [^3H]inositol phosphates are eluted with 75 μl of 1.2M ammonium formate/0.1M formic acid solution into 96-well plates. 200 μL of scintillation cocktail is added to each well, and the radioactivity is determined by liquid scintillation counting. […]
# dopamine D1 receptor = biological target: T3, dopamine D1 receptor (Homo sapiens, UniProt P21728); assay: cAMP in Cos-7 cells transfected with dopamine D1 receptor; assay type: cell-based; conditions: 10 μM, dopamine D1 (FIG. 7)
# T3 construct: expressed in transfected cells; host or cells: Cos-7 cells
# Experimental: as §1, §2
# T1 sequence (P50406 whole entry): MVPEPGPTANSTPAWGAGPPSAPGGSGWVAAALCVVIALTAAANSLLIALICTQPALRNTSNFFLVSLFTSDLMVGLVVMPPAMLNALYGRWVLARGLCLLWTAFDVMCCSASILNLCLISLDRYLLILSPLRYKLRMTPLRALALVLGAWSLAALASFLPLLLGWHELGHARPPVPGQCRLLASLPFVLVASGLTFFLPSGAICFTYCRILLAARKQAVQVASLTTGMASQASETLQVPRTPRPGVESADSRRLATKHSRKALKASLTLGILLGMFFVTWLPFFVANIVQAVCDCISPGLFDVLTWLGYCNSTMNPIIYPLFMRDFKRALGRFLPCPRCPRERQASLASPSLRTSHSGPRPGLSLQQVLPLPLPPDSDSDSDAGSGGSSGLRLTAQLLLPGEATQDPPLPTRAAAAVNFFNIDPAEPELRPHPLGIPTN
# T3 sequence (P21728 whole entry): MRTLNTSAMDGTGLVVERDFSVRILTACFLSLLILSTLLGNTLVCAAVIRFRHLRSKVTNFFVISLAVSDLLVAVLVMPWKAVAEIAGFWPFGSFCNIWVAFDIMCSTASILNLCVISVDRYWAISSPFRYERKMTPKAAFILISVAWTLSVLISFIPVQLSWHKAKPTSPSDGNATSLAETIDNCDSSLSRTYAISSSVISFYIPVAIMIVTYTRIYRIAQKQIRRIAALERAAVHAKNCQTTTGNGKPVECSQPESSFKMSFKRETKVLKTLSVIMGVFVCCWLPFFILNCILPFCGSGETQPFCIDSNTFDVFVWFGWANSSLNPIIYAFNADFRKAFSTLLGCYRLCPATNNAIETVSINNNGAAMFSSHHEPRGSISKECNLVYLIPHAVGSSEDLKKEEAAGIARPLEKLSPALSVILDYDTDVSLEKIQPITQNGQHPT
structure (smiles),measurement,setting,value
"CC1=C(/C=C/C(C)=C/C=C/C(C)=C/C(=O)O)C(C)(C)CCC1 [ATRA, all-trans-retinoic acid]",current response in oocytes injected with only CFTR mRNA,[1],no such current was observed
same,cAMP response,serotonin 5-HT6 receptor,no response
same,IP release,SNORF25 receptor,not IP release
same,cAMP response,dopamine D1 receptor,no response
